The record followed here is patent US6174877A, “Carbapenem compound, their production and use” (Takeda Chemical Industries, Ltd., priority 1996, dated 2001).

Converted amounts (≈) assume the structure as drawn. Read-outs that look alike come from different tables or passages of the source.

The subject of one assay is E. coli NHIJ JC-2. The assay can be described thus: Minimum inhibitory concentration (MIC) by agar dilution method. The class given is cell-based. Particulars: Escherichia coli. The method, then:
(§1) Minimum Inhibitory Concentration (MIC)
(§2) The minimum inhibitory concentration [MIC (unit: (μg/ml)] of the test compound was determined by an agar dilution method. More specifically, 0.25 ml of an aqueous solution of the test compound diluted stepwise was put into a Petri dish, which was then mixed with 9.75 ml of Muller-Hinton agar containing fildis enrichment [F-MH medium. fildis enrichment (5%)]). On thus-prepared mixed agar plate, a suspension of the test bacteria (about 10^6 CFU/ml) was spread, which was incubated at 37° C. overnight.

A further assay has as its system H. influenzae NN400. The description is as above. It counts as cell-based. The settings on record: Haemophilus influenzae. The method, then: as §1, §2
Where [1] appears, read: NHIJJC2, read-out: MIC (μg/ml) 10^6 CFU/ml E. coli NHIJ JC-2.
Setting [2] is: NN400, read-out: MIC (μg/ml) 10^6 CFU/ml H. influenzae NN400.
The mark [3] stands for this setting: NHIJJC2, strain E. coli NHIJ JC-2, medium F-MH, 10^6 CFU/ml, 37° C. overnight, read-out: MIC (μg/ml) 10^6 CFU/ml E. coli NHIJ JC-2.
[4] abbreviates: strain H. influenzae NN400, medium F-MH, 10^6 CFU/ml, 37° C. overnight, read-out: MIC (μg/ml) 10^6 CFU/ml H. influenzae NN400.

Turning to `C[C@@H](O)[C@H]1C(=O)N2C(C(=O)[O-])=C(SCCc3cc[nH]n3)[C@H](C)[C@H]12.[Na+]` [Working Example 3-3, Sodium (4R,5S,6S)-6-[(1R)-1-hydroxyethyl]-4-methyl-7-oxo-3-[2-(3-pyrazolyl)ethylthio]-1-azabicyclo[3.2.0]hept-2-ene-2-carboxylate], the MIC with E. coli NHIJ JC-2 (setting [1]) and in the assay on H. influenzae NN400 (setting [2]) was 0.1 µg/mL throughout.

As to `CC(Cc1cccnn1)SC1=C(C(=O)O)N2C(=O)[C@H]([C@@H](C)O)[C@H]2[C@H]1C` (single isomer, unassigned; diastereomer-2) [Working Example 17], the MIC in the assay with E. coli NHIJ JC-2 (setting [3]) and with H. influenzae NN400 (setting [4]) was 0.1 µg/mL (≈ 0.275 µM) throughout.

As to `C[C@@H](O)[C@H]1C(=O)N2C(C(=O)[O-])=C(SCCc3cn4ccccc4n3)[C@H](C)[C@H]12.[Na+]` [Working Example 18-2, Sodium (4R,5S,6S)-6-[(R)-1-hydroxyethyl]-3-[2-(imidazo[1,2-a]pyridin-2-yl)ethylthio]-4-methyl-7-oxo-1-azabicyclo[3.2.0]hept-2-ene-2-carboxylate], the MIC was 0.2 µg/mL in the assay on E. coli NHIJ JC-2 (setting [1]) and 0.1 µg/mL with H. influenzae NN400 (setting [2]).

As for `C[C@@H](O)[C@H]1C(=O)N2C(C(=O)[O-])=C(SCCc3cn4cccnc4n3)[C@H](C)[C@H]12.[Na+]` [Working Example 32-2, Sodium (4R,5S,6S)-6-[(1R)-1-hydroxyethyl]-3-[2-(imidazo[1,2-a]pyrimidin-2-yl)ethylthio]-4-methyl-7-oxo-1-azabicyclo[3.2.0]hept-2-ene-2-carboxylate], the MIC with E. coli NHIJ JC-2 (setting [1]) came out at 0.2 µg/mL; in the assay on H. influenzae NN400 (setting [2]), 0.05 µg/mL.

For `C[C@@H](O)[C@H]1C(=O)N2C(C(=O)O)=C(SCCc3c[nH]nn3)[C@H](C)[C@H]12` [Working Example 2-3, Sodium (4R,5S,6S)-6-[(1R)-1-hydroxyethyl]-4-methyl-7-oxo-3-[2-(1,2,3-triazol-4-yl)ethylthio]-1-azabicyclo[3.2.0]hept-2-ene-carboxylate], the MIC was determined as 0.025 µg/mL with E. coli NHIJ JC-2 (setting [3]) and 0.1 µg/mL in the assay on H. influenzae NN400 (setting [4]).

In the case of `C[C@@H](O)[C@H]1C(=O)N2C(C(=O)O)=C(SCCc3cn4cc(N)ccc4n3)[C@H](C)[C@H]12` [Working Example 29-2, Sodium (4R,5S,6S)-3-[2-(6-aminoimidazo[1,2-a]pyridin-2-yl)ethylthio]-6-[(1R)-1-hydroxyethyl]-4-methyl-7-oxo-1-azabicyclo[3.2.0]hept-2-ene-carboxylate], the MIC came to 0.2 µg/mL in the assay on E. coli NHIJ JC-2 (setting [3]) and 0.05 µg/mL with H. influenzae NN400 (setting [4]).

Turning to `C[C@@H](O)[C@H]1C(=O)N2C(C(=O)O)=C(SCCN=CN)C[C@H]12` [Imipenem, reference compound], the MIC worked out at 0.1 µg/mL (≈ 0.334 µM) in the assay on E. coli NHIJ JC-2 (setting [3]) and 0.78 µg/mL (≈ 2.61 µM) in the assay on H. influenzae NN400 (setting [4]).

`C[C@@H](O)[C@H]1C(=O)N2C(C(=O)[O-])=C(SCCc3cn4c(NC(N)=O)cccc4n3)[C@H](C)[C@H]12.[Na+]` [Working Example 33-2, Sodium (4R,5S,6S)-6-[(1R)-1-hydroxyethyl]-4-methyl-7-oxo-3-[2-(5-ureidoimidazo[1,2-a]pyridin-2-yl)ethylthio]-1-azabicyclo[3.2.0]hept-2-ene-2-carboxylate]: the MIC was 0.2 µg/mL in the assay on E. coli NHIJ JC-2 (setting [1]) and 0.1 µg/mL in the assay with H. influenzae NN400 (setting [2]).
